Data: ChEMBL document CHEMBL6177952, “Exploring chloro-isoxazole compounds inspired on tetrahydrofuran neolignans as promising antileishmanial agents” (Eur J Med Chem, 2025)
The source made the active and inactive calls. The calls are words filed in the database; no cut-off is given here.

How the values were obtained:
[1] = system: Leishmania amazonensis; assay: Antileishmanial activity against leishmania amazonensis IFLA/BR/1967/PH8 promastigotes infected in mouse Peritoneal macrophage incubated for 24 hrs; format: functional, organism-based; details: IFLA/BR/1967/PH8, Peritoneal macrophage
[2] = Selectivity ratio of CC50 for cytotoxicity against BALB/c mouse Peritoneal macrophage assessed as inhibition of cell growth to IC50 for antileishmanial activity against leishmania amazonensis IFLA/BR/1967/PH8 promastigotes infected in mouse Peritoneal macrophage; format: toxicity, cell-based; details: peritoneal macrophages, read-out: Ratio CC50/IC50
[3] = system: Leishmania amazonensis; assay: Antileishmanial activity against leishmania amazonensis IFLA/BR/1967/PH8 intracellular amastigote infected in mouse Peritoneal macrophage incubated for 24 hrs; format: functional, organism-based; details: IFLA/BR/1967/PH8, Peritoneal macrophage
[4] = Selectivity ratio of CC50 for cytotoxicity against BALB/c mouse Peritoneal macrophage assessed as inhibition of cell growth to IC50 for antileishmanial activity against leishmania amazonensis IFLA/BR/1967/PH8 intracellular amastigote infected in mouse Peritoneal macrophage; format: toxicity, cell-based; details: peritoneal macrophages, read-out: Ratio CC50/IC50
[5] = system: Leishmania amazonensis; assay: Potency index, ratio of Amphotericin B IC50 to test compound IC50 for antileishmanial activity against leishmania amazonensis IFLA/BR/1967/PH8 promastigotes infected in mouse Peritoneal macrophage incubated for 24 hrs; format: functional
[6] = system: Leishmania amazonensis; assay: Potency index, ratio of pentamidine IC50 to test compound IC50 for antileishmanial activity against leishmania amazonensis IFLA/BR/1967/PH8 promastigotes infected in mouse Peritoneal macrophage incubated for 24 hrs; format: functional
[7] = system: Leishmania amazonensis; assay: Antileishmanial activity against leishmania amazonensis infected in BALB/c mouse assessed as reduction in footpad swelling at 5 mg/kg, ILES measured at week 5; format: functional, organism-based; details: time 5.0 weeks
[8] = system: Leishmania amazonensis; assay: Antileishmanial activity against leishmania amazonensis infected in BALB/c mouse assessed as reduction in lesion size at 5 mg/kg, ILES measured at 6 to 9 week post infection; format: functional, organism-based; details: time 6-9 weeks
[9] = system: Leishmania amazonensis; assay: Antileishmanial activity against leishmania amazonensis infected in BALB/c mouse assessed as reduction in parasite load in footpad tissue at 5 mg/kg, ILES measured after 65 days post infection by limiting dilution assay; format: functional, organism-based; details: time 65.0 day
[10] = system: Leishmania amazonensis; assay: Antileishmanial activity against leishmania amazonensis infected in BALB/c mouse assessed as reduction in parasitism in draining lymph node at 5 mg/kg, ILES measured after 65 days post infection by limiting dilution assay; format: functional, organism-based; details: time 65.0 day
[11] = system: Leishmania amazonensis; assay: Antileishmanial activity against leishmania amazonensis infected in BALB/c mouse assessed as reduction in […] at 5 mg/kg, ILES measured after 65 days post infection by limiting dilution assay; format: functional, organism-based; details: time 65.0 day
[12] = system: Mitochondrial membrane; assay: Induction of mitochondrial membrane potential in Leishmania amazonensis promastigotes at 38.1 uM measured at 48 hrs by flow cytometry analysis; format: cell membranes
[13] = system: Mitochondrial membrane; assay: Induction of mitochondrial membrane potential in Leishmania amazonensis promastigotes at 38.1 uM measured at 72 hrs by flow cytometry analysis; format: cell membranes
[14] = Mutagenicity in Salmonella typhimurium TA102 assessed as number of revertant colonies per plate at 1500 microg/ml in presence of S9 fraction by Ames test; format: toxicity, subcellular; details: salmonella enterica subsp. enterica serovar typhimurium, dose 1500 µg/ml
[15] = Mutagenicity in Salmonella typhimurium TA98 assessed as number of revertant colonies per plate at 50 microg/ml by Ames test; format: toxicity; details: salmonella enterica subsp. enterica serovar typhimurium; dose 50 µg/ml
[16] = Mutagenicity in Salmonella typhimurium TA98 assessed as number of revertant colonies per plate at 500 microg/ml by Ames test; format: toxicity; details: salmonella enterica subsp. enterica serovar typhimurium; dose 500 µg/ml
[17] = Mutagenicity in Salmonella typhimurium TA98 assessed as number of revertant colonies per plate at 1500 microg/ml by Ames test; format: toxicity; details: salmonella enterica subsp. enterica serovar typhimurium; dose 1500 µg/ml
[18] = Mutagenicity in Salmonella typhimurium TA100 assessed as number of revertant colonies per plate at 50 microg/ml by Ames test; format: toxicity; details: salmonella enterica subsp. enterica serovar typhimurium; dose 50 µg/ml
[19] = Mutagenicity in Salmonella typhimurium TA100 assessed as number of revertant colonies per plate at 500 microg/ml by Ames test; format: toxicity; details: salmonella enterica subsp. enterica serovar typhimurium; dose 500 µg/ml
[20] = Mutagenicity in Salmonella typhimurium TA102 assessed as number of revertant colonies per plate at 50 microg/ml in presence of S9 fraction by Ames test; format: toxicity, subcellular; details: salmonella enterica subsp. enterica serovar typhimurium, dose 50 µg/ml
[21] = Mutagenicity in Salmonella typhimurium TA102 assessed as number of revertant colonies per plate at 50 microg/ml by Ames test; format: toxicity; details: salmonella enterica subsp. enterica serovar typhimurium; dose 50 µg/ml
[22] = Mutagenicity in Salmonella typhimurium TA102 assessed as number of revertant colonies per plate at 150 microg/ml in presence of S9 fraction by Ames test; format: toxicity, subcellular; details: salmonella enterica subsp. enterica serovar typhimurium, dose 150 µg/ml
[23] = Mutagenicity in Salmonella typhimurium TA102 assessed as number of revertant colonies per plate at 150 microg/ml by Ames test; format: toxicity; details: salmonella enterica subsp. enterica serovar typhimurium; dose 150 µg/ml
[24] = Mutagenicity in Salmonella typhimurium TA102 assessed as number of revertant colonies per plate at 500 microg/ml in presence of S9 fraction by Ames test; format: toxicity, subcellular; details: salmonella enterica subsp. enterica serovar typhimurium, dose 500 µg/ml
[25] = Mutagenicity in Salmonella typhimurium TA102 assessed as number of revertant colonies per plate at 500 microg/ml by Ames test; format: toxicity; details: salmonella enterica subsp. enterica serovar typhimurium; dose 500 µg/ml
[26] = Mutagenicity in Salmonella typhimurium TA102 assessed as number of revertant colonies per plate at 1500 microg/ml by Ames test; format: toxicity; details: salmonella enterica subsp. enterica serovar typhimurium; dose 1500 µg/ml
[27] = Mutagenicity in Salmonella typhimurium TA102 assessed as number of revertant colonies per plate at 5000 microg/ml in presence of S9 fraction by Ames test; format: toxicity, subcellular; details: salmonella enterica subsp. enterica serovar typhimurium, dose 5000 µg/ml
[28] = Mutagenicity in Salmonella typhimurium TA102 assessed as number of revertant colonies per plate at 5000 microg/ml by Ames test; format: toxicity; details: salmonella enterica subsp. enterica serovar typhimurium; dose 5000 µg/ml
[29] = system: Leishmania amazonensis; assay: Antileishmanial activity against Leishmania amazonensis promastigotes assessed as necrotic parasites at 38.1 uM incubated for 24 hrs by Annexin V/7-AAD staining based flow cytometry analysis relative to control; format: functional
[30] = system: Leishmania amazonensis; assay: Antileishmanial activity against Leishmania amazonensis promastigotes assessed as early apoptotic parasites at 38.1 uM incubated for 48 hrs by Annexin V/7-AAD staining based flow cytometry analysis relative to control; format: functional
[31] = system: Leishmania amazonensis; assay: Antileishmanial activity against Leishmania amazonensis promastigotes assessed as late apoptotic parasites at 38.1 uM incubated for 48 hrs by Annexin V/7-AAD staining based flow cytometry analysis relative to control; format: functional
[32] = system: Leishmania amazonensis; assay: Antileishmanial activity against Leishmania amazonensis promastigotes assessed as viable apoptotic parasites at 38.1 uM incubated for 48 hrs by Annexin V/7-AAD staining based flow cytometry analysis relative to control; format: functional
[33] = system: Leishmania amazonensis; assay: Antileishmanial activity against Leishmania amazonensis promastigotes assessed as late apoptotic parasites at 38.1 uM incubated for 72 hrs by Annexin V/7-AAD staining based flow cytometry analysis relative to control; format: functional
[34] = system: Leishmania amazonensis; assay: Antileishmanial activity against Leishmania amazonensis promastigotes assessed as viable apoptotic parasites at 38.1 uM incubated for 72 hrs by Annexin V/7-AAD staining based flow cytometry analysis relative to control; format: functional
[35] = system: Leishmania amazonensis; assay: Antileishmanial activity against Leishmania amazonensis promastigotes assessed as necrotic parasites at 38.1 uM incubated for 72 hrs by Annexin V/7-AAD staining based flow cytometry analysis relative to control; format: functional

In the case of `COc1cc(-c2cc(-c3ccc4c(c3)OCO4)on2)c(Cl)c(OC)c1OC`, the IC50 [1] is reported as 38.1 µM, the selectivity ratio [2] is reported as 1.3 and the IC50 [3] is reported as 2.2 µM. For the same compound, the selectivity ratio [4] was 22.7, the “Ratio IC50” value [5] was 3.6 and the “Ratio IC50” value [6] was 29. The Activity [7] was “Active”, the Activity [8] was “Active” and the Activity [9] was “Active”. For the same compound, the Activity [10] was “Active”, the Activity [11] was “Active” and the Activity [12] was “Active”. The Activity [13] was “Active”, the Activity [14] was 100 revertants/plate and the Activity [15] was 19.7 revertants/plate. The revertant count [16] was 23.3 revertants/plate, the revertant count [17] was 32.7 revertants/plate and the revertant count [18] was 103 revertants/plate. For the same compound, the revertant count [19] was 123 revertants/plate, the Activity [20] was 204 revertants/plate and the revertant count [21] was 139 revertants/plate. It also gave an Activity [22] of 187 revertants/plate, an Activity [23] of 142 revertants/plate and a revertant count [24] of 109 revertants/plate. It also gave a revertant count [25] of 161 revertants/plate, an Activity [26] of 182 revertants/plate and a revertant count [27] of 100 revertants/plate. For the same compound, the revertant count [28] was 194 revertants/plate, the Activity [29] was 0.3% and the Activity [30] was 3.6%. The Activity [31] was 0.6%, the Activity [32] was 95.2% and the Activity [33] was 1.9%. For the same compound, the Activity [34] was 93.2% and the Activity [35] was 2.5%.
